Measurements published in publication PMC7381740 (Theranostics, 2020).
Entries after “also recorded” stand apart in the source; their conditions may differ. Like-named read-outs stand apart in the source and are kept apart here.

Experiments:
σ1 receptor (S1R) = settings: cited from earlier work
neurons (NeuN) = experiment: NeuN immunohistochemistry after intrastriatal AMPA; format: in vivo, rat
Experimental: Animals were maintained normothermic (body temperature: 37.0 ± 0.4 °C) during the surgery through the use of a heating blanket (Homeothermic Blanket Control Unit, Harvard Apparatus Limited®, Edenbridge, Kent, UK). Twenty-four hours later, the rats were anesthetized again as described above and scanned with a 3T cryogen-free MRS 3000 scanner with a quadrature, rat head coil (MR Solutions, Guildford, UK), [35] to assess oedema (i.e. lesion size and location) immediately before the PET scan. Parameters for the T2-weighted RARE sequence were: repetition time = 4800 ms, base echo time = 17 ms, effective echo time = 68 ms, number of echoes = 8, bandwidth = 20 kHz, number of samples = 256, number of views = 240, number of averages = 1 with 25 slices of 1.06 mm, giving a final voxel size of 0.136 × 0.136 × 1.06 mm.
Immunohistochemistry was also carried out in rats that received intrastriatal AMPA to visualise NeuN (neuronal marker). Animals were culled by isoflurane overdose confirmed by cervical dislocation. The brains were collected, snap frozen using isopentane on dry ice and stored at -80 °C. Coronal brain sections (20 µm thick) were taken using a cryostat (Leica CM3050s, Leica Biosystems Nussloch GmbH, Germany) and stored at -80 °C. Sections were allowed to defrost and dry at room temperature for 20min and then fixed with 4% paraformaldehyde for 10 min before being washed (6 × 5 min) in phosphate buffered saline (PBS) and incubated for 30 min in 2% normal donkey serum and 0.1% Triton X-100 in PBS to permeabilise and block non-specific binding. Primary antibody incubation was carried out overnight at 4 °C with rabbit anti-NeuN (Abcam, ab177487, 1:500). Following incubation in primary antibody, PBS washes were repeated (3 × 10min) and incubation with the secondary antibody (Alexa Fluor 594nm Donkey anti-rabbit IgG 1:500) was carried out. Images of the lesioned striatum were collected on an Olympus BX51 upright microscope using a 10×/0.30 UPlanFLN objectives and captured using a Retiga 6000 Color and R6 camera through QCapture Pro 7 and Ocular Software (QImaging Inc.). Specific band pass filter sets were used to prevent bleed through from one channel to the next. NeuN staining was quantified using ImageJ (1.52n) [51]-[53] using 5 snapshots for the caudate putamen, 3 snapshots for the globus pallidus and 2 snapshots for the substantia nigra for each side of the brain (ipsi- and contralateral). Both the total number of neurons averaged over the snapshots and the percentage of stained areas were measured.
For NeuN staining analysis and ^18F-IAM6067 autoradiography in the AMPA model, percentage stained area, cell counts and ^18F-IAM6067 were analysed using paired t-tests (ipsi- vs contralateral) for the caudate-putamen, globus pallidus and substantia nigra.

S1R [1] = target: S1R (Rattus norvegicus, UniProt Q9R0C9); experiment: PET pre-saturation (blocking) studies of ^18F-IAM6067 uptake; format: in vivo; settings: blocker 1 mg/kg i.v. 20-30 min before scan
Chain of S1R (Rattus norvegicus, UniProt Q9R0C9) (Q9R0C9 whole entry): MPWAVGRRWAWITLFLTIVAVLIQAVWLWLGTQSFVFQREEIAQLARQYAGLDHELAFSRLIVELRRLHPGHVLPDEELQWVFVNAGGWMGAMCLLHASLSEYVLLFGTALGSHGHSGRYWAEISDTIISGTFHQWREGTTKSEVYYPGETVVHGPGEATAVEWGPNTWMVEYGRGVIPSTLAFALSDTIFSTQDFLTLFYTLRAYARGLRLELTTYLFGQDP
Experimental: PET data were expressed as SUV.
As the experiments with CM398 were performed later, scans without and with pre-treatment with CM398 were performed in the same animals and therefore were analysed using 2 way ANOVA with repeated measures for ROI and treatment. ANOVA were followed by a Sidak's post-hoc test.

sigma binding sites = test system: sigma binding sites; parameters: method as in PMID 8221112; settings: hippocampus of AD patients vs controls, autoradiography; cited from earlier work
S1R [2] = settings: baboon pre-treated with haloperidol 1 mg/kg i.v.; cited from earlier work
[3] = globus pallidus, 24 h after intrastriatal AMPA 7.5 nmol, ipsi- vs contralateral

For `FCC[C@H]1OC2(CCN(Cc3ccccc3)CC2)c2ccccc21` [(R)-^18F-fluspidine], the Ki (σ1 receptor (S1R); enantiomers) is listed as 0.52 nM.

For `Cc1onc(O)c1CC(N)C(=O)O` (stereo not drawn) [AMPA, α-amino-3-hydroxy-5-methyl-4-isoxazolepropionic acid], the “loss of neurons, NeuN % stained area” value (neurons (NeuN); caudate-putamen, 24 h after intrastriatal AMPA 7.5 nmol, ipsi- vs contralateral) was -81 ± 3%, the “loss of neurons, NeuN % stained area” value (neurons (NeuN); [3]) was -71 ± 8% and the “loss of neurons, NeuN cell number” value (neurons (NeuN); [3]) was -56 ± 17%. The “loss of neurons in the striatum (NeuN immunostaining)” value (neurons (NeuN); striatum) was 70-80%.

With `CN(C)CCN(C)CCc1ccc(Cl)c(Cl)c1` [BD1047] the “decrease (blocking) of ^18F-IAM6067 uptake in all areas of the brain” value (S1R [1]) was 79-90% and the “effect of pre-saturation on ^18F-IAM6067 uptake vs baseline (in words)” value (“effect … vs baseline (in words)” below) (S1R [1]) was “full blocking”.

For `COc1cc2c(cc1OC)CN(CCCCn1c(=O)n(C)c3ccccc31)CC2` [CM398], the “effect … vs baseline (in words)” value (S1R [1]) was “no significant blockade; also recorded: did not reveal any significant difference; also recorded: did not result in a significant reduction”.

For `Cn1ccc2cc3c(cc21)CCN3C(=O)Nc1cccnc1` [SB206553], the “effect … vs baseline (in words)” value (S1R [1]) was “no significant blockade; also recorded: did not reveal any significant difference; also recorded: no significant difference”.

For `Cc1ccccc1NC(=N)Nc1ccccc1C` [^3H-DTG], the decrease in binding (sigma binding sites) is given as 26%.

For `COc1ccc(CCN2CCN(CCCc3ccccc3)CC2)cc1OC` [^11C-SA4503], the Ki (σ1 receptor (S1R)) is given as 4.4 nM.

For `O=c1sc2cc(CCCF)ccc2n1CCN1CCCCCC1` [^18F-FTC-146], the Ki (σ1 receptor (S1R)) is listed as 0.0025 nM.

In the case of `FCCC1OC2(CCN(Cc3ccccc3)CC2)c2ccccc21` (stereo not drawn) [^18F-fluspidine], the Ki (σ1 receptor (S1R)) is given as 0.59 nM.

In the case of `O=C(CCCN1CCC(O)(c2ccc(Cl)cc2)CC1)c1ccc(F)cc1` [haloperidol], the “displacement in specific receptor binding of ^18F-IAM6067 in all areas of the brain” value (S1R [2]) is listed as 80%.

In the case of (S)-^18F-fluspidine, the Ki (σ1 receptor (S1R); enantiomers) is listed as 2.3 nM.
